PMC8228819, “Comparison of a Short Linear Antimicrobial Peptide with Its Disulfide-Cyclized and Cyclotide-Grafted Variants against Clinically Relevant Pathogens” (Microorganisms, 2021)
Values after ≈ are worked out from the molar mass of the structure shown. Where two headings read alike, the source gives them in different places. Bridge positions count the residues as written; N and C are the ends. Peptide text beside a SMILES is read from it.

Tests used:
[1] = tested on: Staphylococcus aureus, epidemic methicillin-resistant EMRSA-15; format: cell-based; details: for MIC: single measurement (asterisk)
Description: (§1) The following strains were used in this study: Escherichia coli, ATCC 25922, Staphylococcus aureus, epidemic methicillin-resistant EMRSA-15, Klebsiella pneumoniae, clinical isolate from St George’s, University of London (SGUL, London, UK), Acinetobacter baumannii, clinical isolate from SGUL, Pseudomonas aeruginosa, PA01 wildtype strain, and Enterococcus faecalis, vancomycin-resistant ATCC 51299.
(§2) The minimal inhibitory concentration (MIC) was determined in a microdilution assay using Mueller–Hinton (MH) or Brain Heart Infusion Broth (BHI) broth following a previously published protocol. Briefly, a twofold serial dilution of the antibiotics and peptides were prepared and added to a bacteria solution, resulting in 2–5 10^5 CFU/mL. The microtiter plates (polypropylene, Corning, Corning, NY, USA) were incubated for 18 h at 37 °C and MICs were taken visually. Based on our experience with proline rich peptides, their low activity in Mueller–Hinton broth, and their strong activity in diluted broth, we decided to also measure the activity of the peptide set in a 1/5 dilution of the broth. MICs in the presence of serum were established using human serum (Zen-Bio, Durham, NC, USA) and heat-inactivated serum (Sigma-Aldrich, St. Louis, MO, USA). A total of 20% (v/v) of each human serum was mixed with bacterial solution and added to predetermined concentrations of antibiotics and peptides, resulting in a final 10% (v/v) concentration of serum and 2–5 × 10^5 bacteria.

[2] = tested on: ESKAPE pathogens (E. faecalis, S. aureus, K. pneumoniae, A. baumannii, P. aeruginosa, E. coli); experiment: MIC summary over the ESKAPE panel; format: cell-based
Description: as §1, §2

[3] = tested on: Escherichia coli, ATCC 25922; format: cell-based
Description: as §1, §2

[4] = tested on: Klebsiella pneumoniae, clinical isolate from St George's, University of London; format: cell-based
Description: as §1, §2

[5] = tested on: Pseudomonas aeruginosa, PA01 wildtype strain; format: cell-based
Description: as §1, §2

[6] = tested on: Enterococcus faecalis, vancomycin-resistant ATCC 51299; format: cell-based
Description: as §1, §2

[7] = tested on: Acinetobacter baumannii, clinical isolate from SGUL; format: cell-based
Description: as §1, §2

[8] = Serum stability assay; format: in vitro ADME, human; details: 100% human serum
Description: (§3) Serum stability assays were performed in 100% human serum (Sigma-Aldrich, St. Louis MO, USA, human male AB plasma). Serum was centrifuged to remove lipids and incubated with the peptides at 100 μM for 0, 0.5, 1, 3, 6, and 24 h at 37 °C. Serum proteins were precipitated by adding 3 μL of TFA to 40 μL of peptide – serum sample (final TFA 7%). The remaining supernatant was diluted with 50:50 solvent A/B. The amount of peptide remaining (%) was quantified by UPLC-MS analysis. For pH stability experiments, peptides were incubated at a concentration of 20 μM at pH 1.2 and 7.5 for 24 h, and stability was monitored by UPLC analysis.

[9] = pH stability; format: physicochemical; details: 20 μM, pH 1.2 and 7.5, 24 h, UPLC
Description: as §3

[10] = tested on: E. coli (ATCC 25922); experiment: Time kill assay; format: cell-based, Escherichia coli; details: 1/5 (20%) MH broth, 3 times the MIC, 1 × 10^6 CFU/mL, 37 °C, 10-1440 min, three experiments
Description: Overnight culture of E. coli (ATCC 25922) was diluted for approximately two hours to achieve logarithmic phase. The logarithmic phase inoculum was then adjusted to 1 × 10^6 CFU/mL in 20% MH broth. Within a 1.5 mL microfuge tube (STARLAB (UK) Limited, Milton Keynes, UK), the peptides were added to the inoculum at a concentration that was threefold the MIC against E coli. The tubes were placed in a shaking incubator (225 rpm) at 37 °C. At predetermined time points between 0 and 24 h: 10, 20, 40, 60, 120, 240, and 1440 min for the peptides, and for the untreated control: 0, 60, 120, 240, and 1080 min, 100 µl samples were taken out. Furthermore, a 1 in 10 dilution series using sterile 10 mM Tris buffer (pH 7.5) was performed using the removed sample, then 5 × 5 µL were spotted for each dilution onto MH agar plates and incubated at 37 °C. The next day, the colonies were counted and the colony forming units, CFU/mL for each time point, were determined.

[11] = ratio of MICs (fold loss of activity in serum)

CC[C@H](C)[C@H](NC(=O)CN)C(=O)NCC(=O)N[C@@H](C)C(=O)N[C@H](C(=O)N[C@@H](CC(C)C)C(=O)N[C@@H](CCCCN)C(=O)N[C@H](C(=O)N[C@@H](CC(C)C)C(=O)N[C@H](C(=O)N[C@H](C(=O)NCC(=O)N[C@@H](CC(C)C)C(=O)N1CCC[C@H]1C(=O)N[C@@H](C)C(=O)N[C@@H](CC(C)C)C(=O)N[C@H](C(=O)N[C@@H](CO)C(=O)N[C@@H](Cc1c[nH]c2ccccc12)C(=O)N[C@H](C(=O)N[C@@H](CCCCN)C(=O)N[C@@H](CCCNC(=N)N)C(=O)N[C@@H](CCCCN)C(=O)N[C@@H](CCCNC(=N)N)C(=O)N[C@@H](CCC(N)=O)C(=O)N[C@@H](CCC(N)=O)C(N)=O)[C@@H](C)CC)[C@@H](C)CC)[C@@H](C)O)[C@@H](C)O)C(C)C)C(C)C [Melittin, reference compound]
MIC ([1]; 1/5 MH + 10% heat inactivated human serum): 1.4 µM | MIC ([1]; 1/5 MH + 10% human serum): 1.4 µM | MIC ([1]; 1/5 MH): 0.7 µM (≈ 1.99 µg/mL) | MIC ([1]; MH): 4 µM (≈ 11.4 µg/mL)

CC[C@H](C)[C@@H]1NC(=O)[C@@H]2CSSC[C@@H]3NC(=O)[C@H](Cc4c[nH]c5ccccc45)NC(=O)[C@H]([C@@H](C)CC)NC(=O)[C@H]([C@@H](C)CC)NC(=O)[C@H](Cc4c[nH]c5ccccc45)NC(=O)[C@H](CCCNC(=N)N)NC(=O)[C@H](C(C)C)NC(=O)[C@H](CCCNC(=N)N)NC(=O)[C@H](CCCNC(=N)N)NC(=O)[C@H](CCCCN)NC(=O)[C@@H]4CSSC[C@H](NC(=O)[C@H](CC(=O)O)NC(=O)[C@H](CO)NC(=O)[C@H](CC(=O)O)NC(=O)[C@H](CCCNC(=N)N)NC(=O)[C@H](CCCNC(=N)N)NC(=O)[C@H](CSSC[C@H](NC1=O)C(=O)N[C@@H](CCCNC(=N)N)C(=O)NCC(=O)N[C@@H](CC(N)=O)C(=O)NCC(=O)N[C@@H](Cc1ccc(O)cc1)C(=O)N4)NC(=O)[C@H](CCCCN)NC(=O)[C@H](CCCCN)NC(=O)[C@H](CC(C)C)NC(=O)[C@H]([C@@H](C)CC)NC(=O)[C@H](CCCCN)NC(=O)[C@@H]1CCCN1C3=O)C(=O)N1CCC[C@H]1C(=O)NCC(=O)N[C@@H](C)C(=O)N2 [[L6-optP7]Mco] (cyclo(ACICRGNGYCKRRVRWIIWCPKILKKCRRDSDCPG); disulfide 2-20, 4-27, 10-33)
Average activity decrease, lower than for c-opt7 [2]: 1.6 fold | Average activity decrease factor compared to linear optP7 ([2]; all conditions of Table 3): 15.5 fold | Antimicrobial activity in broth (in words) ([2]; undiluted broth): medium to weak | Ratio of MIC of cyclized peptide version over MIC of the linear peptide optP7 ([3]; 1/5 MH + 10% human serum): 18.8 | Improvement of activity when diluting the broth ([3]; 1/5 MH versus MH): 31 fold | Ratio of MIC of cyclized peptide version over MIC of the linear peptide optP7 ([3]; 1/5 MH, average used for an MIC range): 3.3 | Ratio of MIC of cyclized peptide version over MIC of the linear peptide optP7 ([3]; MH): 77.5 | Ratio 1/5 MH + 10% serum/ 1/5MH [3, 11]: 7.5 | Ratio of MIC of cyclized peptide version over MIC of the linear peptide optP7 ([4]; 1/5 MH): 20.7 | Improvement of activity when diluting the broth ([4]; 1/5 MH versus MH): 2 fold | Ratio of MIC of cyclized peptide version over MIC of the linear peptide optP7 ([4]; MH): 41.3 | Ratio of MIC of cyclized peptide version over MIC of the linear peptide optP7 ([5]; 1/5 MH): 10.0 | Ratio of MIC of cyclized peptide version over MIC of the linear peptide optP7 ([5]; 1/5 MH + 10% human serum): 1.3 | Improvement of activity when diluting the broth ([5]; 1/5 MH versus MH, Table 2 data): 7.8 fold | Improvement of activity in diluted media ([5]; 1/5 MH versus MH, fractions of Table 1): 7.8 fold | Ratio of MIC of cyclized peptide version over MIC of the linear peptide optP7 ([5]; MH): 20.6 | Ratio 1/5 MH + 10% serum/ 1/5MH [5, 11]: 1 | Ratio of MIC of cyclized peptide version over MIC of the linear peptide optP7 ([6]; 1/5 BHI): 18.8 | Ratio of MIC of cyclized peptide version over MIC of the linear peptide optP7 ([6]; 1/5 BHI + 10% human serum): 2.6 | Ratio 1/5 BHI + 10% serum/ 1/5BHI ([6]; ratio of MICs): 4.1 | Ratio of MIC of cyclized peptide version over MIC of the linear peptide optP7 ([7]; 1/5 MH): 5 | Ratio of MIC of cyclized peptide version over MIC of the linear peptide optP7 ([7]; 1/5 MH + 10% human serum): 10.3 | Improvement of activity when diluting the broth ([7]; 1/5 MH versus MH): 15.5 fold | Ratio of MIC of cyclized peptide version over MIC of the linear peptide optP7 ([7]; MH): 41.3 | Ratio 1/5 MH + 10% serum/ 1/5MH ([7]; ratio of MICs): 7.75 | Ratio 1/5 MH + 10% serum/ 1/5MH ([1]; ratio of MICs): >7.8 | Increase in stability against degradation in 100% human serum compared to the linear variant [8]: 33 fold | remaining at 24 h, 100 μM ([8]; male, 100% human serum (human male AB plasma), 100 μM, 37 °C, 24 h, UPLC-MS, read-out: Peptide still present after 24 h in human serum): ~30% | pH stability [9]: minor signs of degradation after 24 h at low pH | Kinetics of killing [10]: drastically slower acting
